Patent US12268723B2, “Peptidomimetics for the treatment of coronavirus and picorna virus infections” (priority 2019, dated 2025)
Like-named read-outs stand apart in the source and are kept apart here.

Key:
Type in all cases: cell-based
SARS-CoV-2 = assay: microbe, parasite or virus in culture; settings: read-out: SARS-CoV-2 Inhibition at 10 μM (%)
HCoV (OC43) = assay: In vitro assay for HCoV (OC43), virus yield reduction in Huh7 cells; settings: Betacoronavirus 1, OC43, Huh-7, 10 μM
Text: In order to determine the potential effect of each selected compound against in vitro replication of SARS-CoV-2 in Vero cells or HCoV (OC43) in Huh7 cells, a confluent cell monolayer in a 96-wells cell culture microplate can be infected at a multiplicity of infection (MOI) of 0.1 and treated with a maximum non-toxic concentration (MNTC) of each compound. To assess the antiviral activity, a virus yield reduction assay using specific qRT-PCR for each virus can be performed.
Dose-Dependent Antiviral Assay. The antiviral effect of each compound selected through the antiviral evaluation assay can be further confirmed by virus yield reduction assay using the optimized qRT-PCR by measuring the RNA copy number for each virus in the supernatant of treated-infected cells. A positive control, such as remdesivir, can be used for each assay.
Statistical analysis. The half-maximal effective concentration (EC50) and the concentration with 90% of inhibitory effect (EC90) can be calculated using GraphPad PRISM for Windows, version 5 (GraphPad Software Inc., San Diego, CA, 2005) or the Chou and Talalay Method.
These methods were used to evaluate certain of the compounds described herein.

[1] = tested on: human rhabdomyosarcoma (RD) cell line; assay: Cytotoxicity (MTS) in RD cells
Description: Compounds are tested for cytotoxicity using a MTS (3-(4,5-dimethylthiazol-2-yl)-5-(3-carboxymethoxyphenyl)-2-(4-sulfophenyl)-2H-tetrazolium) method and the CC50 (IC50) values (cytotoxic concentrations of drug required to reduce cell viability by 50%) are determined for each test compound in human rhabdomyosarcoma (RD) cell line. In addition, the maximum non-toxic concentrations (MNTC) are also determined for each compound. To avoid potential drug toxicity that would interfere with viral cytopathic effect (CPE), compounds are evaluated at nontoxic concentrations. The resultant inhibitory effect of each test compound is calculated as a percentage of decrease in EV-71 CPE. Briefly, a monolayer of RD cells is prepared in a 96-well plates. The cells are then infected with 1 MOI of EV-71 (BrCr strain) followed by treatment with a single non-toxic dose of each compound in triplicate. The vehicle control wells are treated with 0.1% DMSO diluted in the working media. […] The dose-response antiviral activity of each compound is determined by a virus yield reduction assay method. Briefly, confluent monolayers of RD cells in 96-wells microplate are infected with 0.1 MOI of EV-71 followed by treatment with compounds. […] Quantitative PCR measurement was performed using StepOnePlus real time PCR system ([…]) according to manufacturer's protocol.

[2] = tested on: Enterovirus EV-71 (BrCr strain); assay: Anti-enterovirus activity, EV-71 virus yield reduction (qRT-PCR) in RD cells; settings: 0.1 MOI, 2 days post-treatment
Description: Compounds are tested for cytotoxicity using a MTS (3-(4,5-dimethylthiazol-2-yl)-5-(3-carboxymethoxyphenyl)-2-(4-sulfophenyl)-2H-tetrazolium) method and the CC50 (IC50) values (cytotoxic concentrations of drug required to reduce cell viability by 50%) are determined for each test compound in human rhabdomyosarcoma (RD) cell line. In addition, the maximum non-toxic concentrations (MNTC) are also determined for each compound. To avoid potential drug toxicity that would interfere with viral cytopathic effect (CPE), compounds are evaluated at nontoxic concentrations. The resultant inhibitory effect of each test compound is calculated as a percentage of decrease in EV-71 CPE. Briefly, a monolayer of RD cells is prepared in a 96-well plates. The cells are then infected with 1 MOI of EV-71 (BrCr strain) followed by treatment with a single non-toxic dose of each compound in triplicate. The vehicle control wells are treated with 0.1% DMSO diluted in the working media. The plate is then incubated for 48 h at which time the virus-control wells produced detectable CPE. To determine the probable CPE inhibitory effect of test compounds, an MTS assay is performed and effective compounds are chosen for further studies to identify the potency of the compounds and their concentration-dependent manner. The dose-response antiviral activity of each compound is determined by a virus yield reduction assay method. Briefly, confluent monolayers of RD cells in 96-wells microplate are infected with 0.1 MOI of EV-71 followed by treatment with compounds. Effective compounds are further quantified and confirmed with a virus-yield-reduction assay using an optimized in house qRT-PCR to determine the EV-71 RNA copy number after 2 days post-treatment from collected supernatants. qRT-PCR is performed using the EV-71 specific probe/primer mix and qScript-Tough master mix (Quantibio, USA). Quantitative PCR measurement was performed using StepOnePlus real time PCR system ([…]) according to manufacturer's protocol. The median effective concentration (EC50) and the concentration with 90% of inhibitory effect (EC90) are calculated using GraphPad PRISM for Windows, version 5 (GraphPad Software Inc., San Diego, CA, 2005) as the means±standard deviation (SD) of the mean from triplicate assay from three independent experiments.

[3] = Cellular toxicity assay in CEM cells; settings: human, CEM lymphoblastoid cells, read-out: Cytotoxicity, CC50, CEM
Description: (§1) The toxicity of the compounds was assessed in Vero, human PBM, CEM (human lymphoblastoid), MT-2, and HepG2 cells, as described previously (see Schinazi R. F., Sommadossi J.-P., Saalmann V., Cannon D. L., Xie M.-Y., Hart G. C., Smith G. A. & Hahn E. F. Antimicrob. Agents Chemother. 1990, 34, 1061-67). Cycloheximide was included as positive cytotoxic control, and untreated cells exposed to solvent were included as negative controls. The cytotoxicity CC50 was obtained from the concentration-response curve using the median effective method described previously (see Chou T.-C. & Talalay P. Adv. Enzyme Regul. 1984, 22, 27-55; Belen'kii M. S. & Schinazi R. F. Antiviral Res. 1994, 25, 1-11).

[4] = Cellular toxicity assay in Vero cells; settings: African green monkey, read-out: Cytotoxicity, CC50, VERO
Description: as §1

[5] = Cellular toxicity assay in Huh7 cells; settings: human, read-out: Cytotoxicity, CC50, Huh7
[6] = Severe acute respiratory syndrome coronavirus 2, 10 μM, Vero cells
[7] = Severe acute respiratory syndrome coronavirus 2, Vero

Row | Compound | inhibition at 10 µM (SARS-CoV-2; [6]) [%] | inhibition at 10 µM (HCoV (OC43)) [%] | inhibition at 10 µM (SARS-CoV-2; [7]) [%] | further results
1 | CC(C)C[C@H](NC(=O)[C@H](Cc1cccc2ccccc12)NC(=O)OCc1ccccc1)C(=O)N[C@H](/C=C(\C#N)C(N)=O)C[C@@H]1CCCNC1=O [Compound 36, Benzyl ((S)-1-(((S)-1-(((S,E)-5-amino-4-cyano-5-oxo-1-((S)-2-oxopiperidin-3-yl)pent-3-en-2-yl)amino)-4-methyl-1-oxopentan-2-yl)amino)-3-(naphthalen-1-yl)-1-oxopropan-2-yl)carbamate] | 99.8 | 99.9 | – | –
2 | CC(C)C[C@H](NC(=O)[C@H](Cc1cccc2ccccc12)NC(=O)OCc1ccccc1)C(=O)N[C@@H](C[C@@H]1CCCNC1=O)[C@@H](O)C#N [Compound 128, Benzyl ((S)-1-(((S)-1-(((1R,2S)-1-cyano-1-hydroxy-3-((S)-2-oxopiperidin-3-yl)propan-2-yl)amino)-4-methyl-1-oxopentan-2-yl)amino)-3-(naphthalen-1-yl)-1-oxopropan-2-yl)carbamate] | – | 100 | 99.9 | –
3 | Cc1cc(C(=O)N[C@@H](Cc2cccc3ccccc23)C(=O)N[C@@H](CC(C)C)C(=O)NC(C=O)C[C@@H]2CCCNC2=O)no1 (some centres unmarked) | – | – | – | CC50 [1]: > 100 µM; EC50 ([2]; read-out: EC50 against Enterovirus EV-71 (BrCr strain)): 0.0085 µM; EC90 ([2]; read-out: EC90 against Enterovirus EV-71 (BrCr strain)): 0.0214 µM
4 | CC(C)C[C@H](NC(=O)[C@H](Cc1cccc2ccccc12)NC(=O)OCc1ccccc1)C(=O)N[C@@H](C[C@@H]1CCCNC1=O)C(=O)C(F)(F)F [Compound 39, Benzyl ((S)-1-(((S)-4-methyl-1-oxo-1-(((S)-4,4,4-trifluoro-3-oxo-1-((S)-2-oxopiperidin-3-yl)butan-2-yl)amino)pentan-2-yl)amino)-3-(naphthalen-1-yl)-1-oxopropan-2-yl)carbamate] | 68 | 99.4 | – | –
5 | CC(C)CC(NC(=O)[C@H](Cc1cccc2ccccc12)NC(=O)OCc1ccccc1)C(=O)N[C@@H](C[C@@H]1CCNC1=O)C1OCCO1 (some centres unmarked) [Compound 136] | – | 99.3 | 99.8 | –
6 | CC(C)C[C@H](NC(=O)[C@H](Cc1cccc2ccccc12)NC(=O)OCc1ccccc1)C(=O)N[C@@H](C[C@@H]1CCCNC1=O)C(O)C(F)(F)F (stereo partly drawn) [Compound 38, Benzyl ((2S)-1-(((2S)-4-methyl-1-oxo-1-(((2S)-4,4,4-trifluoro-3-hydroxy-1-((S)-2-oxopiperidin-3-yl)butan-2-yl)amino)pentan-2-yl)amino)-3-(naphthalen-1-yl)-1-oxopropan-2-yl)carbamate] | 85.1 | 95 | – | CC50 [3]: 6 µM
7 | Cc1cc(C(=O)NC(CC(C)C)C(=O)N[C@H](C=O)C[C@@H]2CCCNC2=O)no1 (some centres unmarked) [Compound 43] | – | 99.9 | 99.9 | –
8 | CC(C)C[C@H](NC(=O)[C@H](Cc1ccc(F)cc1)NC(=O)OCc1ccccc1)C(=O)N[C@H](C=O)C[C@@H]1CCCNC1=O [Compound 35, Benzyl ((S)-3-(4-fluorophenyl)-1-(((S)-4-methyl-1-oxo-1-(((S)-1-oxo-3-((S)-2-oxopiperidin-3-yl)propan-2-yl)amino)pentan-2-yl)amino)-1-oxopropan-2-yl)carbamate] | 99.8 | 99.9 | – | CC50 [4]: > 100 µM; CC50 [5]: 60 µM
